Source: patent US5032584A, “S-diastereomer of an n^6 -((2-hydroxypropyl)aryl)adenosine and its medicinal uses” (G. D. Searle & Co., priority 1988, dated 1991)
Entries after “also recorded” stand apart in the source; their conditions may differ.

Columns and labels:
mice [1] = test: Behavioral toxicity in mice after 75 mg/kg IP; format: in vivo; design: key to Motor depression / Ptosis / Respiratory depression / Flaccidity / Loss of righting reflex: +: toxic symptom observed
Experimental: (§1) Adenosine analogs tend to produce sedation and central nervous system depression which have prevented their therapeutic utility. The compounds of the invention, at doses which lower arterial pressure in the SHR, show no evidence of CNS depression. The ataxia produced by compounds of the present invention was measured in mice by injecting the compounds IP at doses of 32, 56, or 75 mg/kg in an aqueous suspension, n=7 per dose. The mice had previously been trained to remain on a rotating rod. After dosing, the percent of mice unable to remain on the rotating rod was determined. […] The mice were also observed at various time intervals for behavioral signs of toxicity.

[2] = tested on: adenosine A1 receptor in the granular juxtaglomerular cells of the kidney; conditions: Federation Proceedings 44:879 & 1643, 1985; cited from earlier work
[3] = tested on: plasma renin activity (PRA); test: Change in plasma renin activity in the bilateral renal artery ligated rat; format: in vivo, Sprague-Dawley rats; conditions: 1 mg/kg I.V.; for Prevention of PRA increase (in words): 30 and 60 minutes
Experimental: Adenosine Al receptor stimulation will inhibit the release of renin from the kidney. A stimulus for the release of renin is renal ischemia. The ability of the compounds of the present invention to prevent an increase in PRA following renal ischemia was tested in rats with both renal arteries ligated. Sprague-Dawley rats were anesthetized with ether and the renal arteries were ligated. Three to five hours after anesthesia, arterial blood was sampled and compounds I and II were administered in polyethylene glycol at 1 mg/kg I.V. At 30 and 60 minutes after administration, arterial blood was sampled for PRA measurement by the method of Sealy, J. E. et al., Cardiovasc. Med. 2:1079, 1977.

mice [4] = test: Ataxia on the rotating rod in mice; format: in vivo; conditions: for Percent ataxic, 0.5 hour / Percent ataxic, 3 hour: 54 ± 12 mg/kg ip (pooled 32, 56, 75 mg/kg)
Experimental: as §1

[5] = tested on: spontaneously hypertensive rats (SHR); test: Effects on mean arterial pressure and heart rate in conscious spontaneously hypertensive rats (i.v. or intragastric); format: in vivo, rat
Experimental: The effects of compounds I and II were tested intravenously or intragastrically in conscious spontaneously hypertensive rats (SHR). The rats were anesthetized with ether and the left carotid artery and right jugular vein were cannulated with polyethylene tubing. The rats were allowed three to five hours recovery from anesthesia for the I.V. studies and 12 to 18 hours for the oral studies. Mean arterial pressure (MAP, in mm/Hg) and heart rate (HR, beats/min.) were measured from the artery; intravenous administration of compounds was performed by injection into the vein. Oral administration was performed by gastric intubation. Compounds were dissolved in DMSO for I.V. studies and injected in volumes of 100 μ1/kg or less (N=5 per pound). Doses were 3 to 1,000 μg/kg. Compounds were dissolved in polyethylene glycol for oral administration and injected in volumes of 1 ml/kg at a dose of 20 mg/kg/day for three days (N=3 to 6 per compound).
The resting MAP and HR for the SHR ranged between 160-200 mm Hg and 330/350 b/min., respectively.

Solubility in MeOH = format: physicochemical; conditions: S isomer vs R isomer
[6] = 20 mg/kg intragastric, day 2 of oral administration

Row | Compound | Flaccidity (mice [1]; 75 mg/kg IP, 18-20 h) | Motor depression (mice [1]; 75 mg/kg IP, 18-20 h) | Ptosis (mice [1]; 75 mg/kg IP, 18-20 h) | Motor depression (mice [1]; 75 mg/kg IP, 0.5 h) | Ptosis (mice [1]; 75 mg/kg IP, 0.5 h) | Motor depression (mice [1]; 75 mg/kg IP, 3 h) | Ptosis (mice [1]; 75 mg/kg IP, 3 h) | Prevention of PRA increase (in words) [3] | Percent ataxic, 0.5 hour (mice [4]) [%] | Percent ataxic, 3 hour (mice [4]) [%] | Solubility in MeOH (in words) (Solubility in MeOH) | also measured
1 | OC[C@H]1O[C@@H](n2cnc3c(NCC(O)COc4cccc5ccccc45)ncnc32)[C@H](O)[C@@H]1O (mixture of isomers) [Compound I, N(6)-[2-hydroxy-3-(1-naphthyloxy)propyl]-adenosine] | + | + | + | + | + | + | + | prevented to the same extent | 33 ± 10 | 95 ± 5 | – | Flaccidity, incidence (footnote *) (mice [1]; 75 mg/kg IP, 18-20 h): 2/7; Respiratory depression (mice [1]; 75 mg/kg IP, 18-20 h): +; Respiratory depression (mice [1]; 75 mg/kg IP, 0.5 h): +; Behavioral toxicity (in words) (mice [1]; 75 mg/kg IP, 3 h): flaccidity and loss of righting reflex; Flaccidity (mice [1]; 75 mg/kg IP, 3 h): +; Loss of righting reflex (mice [1]; 75 mg/kg IP, 3 h): +; Respiratory depression (mice [1]; 75 mg/kg IP, 3 h): +; Binding to adenosine A1 receptor and effect on renin release, blood pressure, heart rate (in words) [2]: binds to the adenosine Al receptor in the granular juxtaglomerular cells of the kidney to inhibit release of renin into the plasma, ultimately resulting in a reduction in circulating angiotensin II, thus reducing arterial blood pressure and heart rate in hypertensive models
2 | OC[C@H]1O[C@@H](n2cnc3c(NC[C@H](O)COc4cccc5ccccc45)ncnc32)[C@H](O)[C@@H]1O [Compound II, N^6-[2S-hydroxy-3-(1naphthalenyloxy)propyl]-adenosine] | + | + | + | + | + | + | + | prevented to the same extent | 14 ± 8 | 48 ± 21 | less soluble in MeOH | Motor depression (mice [1]; 75 mg/kg IP, 24 h): +; Motor depression, incidence (mice [1]; 75 mg/kg IP, 24 h): 5/7; Ptosis (mice [1]; 75 mg/kg IP, 24 h): +; Ptosis, incidence (mice [1]; 75 mg/kg IP, 24 h): 5/7; Respiratory depression, incidence (mice [1]; 75 mg/kg IP, 24 h): 5/7; Respiratory depression (mice [1]; mouse, in vivo): +; Maximum decrease at 20 mg/kg ig, HR [5, 6]: 202 ± 24 b/min; Maximum decrease at 20 mg/kg ig, MAP [5, 6]: 62 ± 7 mmHg; ED (HR decrease by 100 b/min) ([5]; Rattus norvegicus, iv, i.v. in DMSO, read-out: IV dose to decrease HR by 100 b/min): 0.036 ± 0.0012 mg/kg; ED (MAP decrease by 40 mmHg) ([5]; Rattus norvegicus, iv, i.v. in DMSO, read-out: IV dose to decrease MAP by 40 mmHg): 0.047 ± 0.0012 mg/kg; Change in PRA, 30 minutes ([3]; 30 min after dosing): -11.7 ± 3.5 ngAI/ml/hr; Change in PRA, 60 minutes ([3]; 60 min after dosing): -13.8 ± 4.9 ngAI/ml/hr; Central nervous system toxicity (in words) (mice [4]; compared to compound I / racemic mixture): less CNS toxic than compound I, especially with regard to ataxia; also recorded: less central nervous system toxicity than the racemic mixture; Ataxia / motor toxicity (in words) (mice [4]; mice, ip, compared to compound I): less ataxia at 0.5 or 3 hours as compared to compound I; also recorded: less motor toxicity than compound I
3 | OC[C@H]1O[C@@H](n2cnc3c(NC[C@@H](O)COc4cccc5ccccc45)ncnc32)[C@H](O)[C@@H]1O [R isomer] | – | – | – | – | – | – | – | – | – | – | more soluble in MeOH | –
